Patent US20070117743A1, “New antitumoral compounds” (priority 2003, published 2007)
Where a SMILES comes first, the peptide text is derived from it. Bridges are numbered along the chain shown (N, C = ends). [ ]: non-standard residue; d: D form. The star is where a group is joined. d(aIle) = CC[C@H](C)[C@@H](N)C(=O)O; d(aThr) = C[C@@H](O)[C@@H](N)C(=O)O; Hexanoyl(5-Me) = CC(C)CCCC(=O)*; Orn = NCCC[C@H](N)C(=O)O; Dhb = C/C=C(\N)C(=O)O

Assays:
Assay type in all cases: cell-based, human
IGROV-ET = test: SRB colorimetric assay of cell growth and viability, IGROV-ET; details: 48 hours exposure; for CC50: read-out: LC50 IGROV-ET
HT-29 = test: SRB colorimetric assay of cell growth and viability, HT-29; details: 48 hours exposure; for GI50: read-out: GI50 HT-29; for CC50: read-out: LC50 HT-29
PANC-1 = test: SRB colorimetric assay of cell growth and viability, PANC-1; details: 48 hours exposure; for CC50: read-out: LC50 PANC-1
A-549 = test: SRB colorimetric assay of cell growth and viability, A-549; details: 48 hours exposure; for GI50: read-out: GI50 A-549; for CC50: read-out: LC50 A-549
K-562 = test: SRB colorimetric assay of cell growth and viability, K-562; details: 48 hours exposure; for CC50: read-out: LC50 K-562
HeLa = test: SRB colorimetric assay of cell growth and viability, HeLa; details: 48 hours exposure; for CC50: read-out: LC50 HELA
HeLa-APL = test: SRB colorimetric assay of cell growth and viability, HeLa-APL; details: 48 hours exposure; for CC50: read-out: LC50 HELA-APL
SK-MEL-28 = test: SRB colorimetric assay of cell growth and viability, SK-MEL-28; details: 48 hours exposure; for CC50: read-out: LC50 MEL-28
IGROV-1 = test: SRB colorimetric assay of cell growth and viability, IGROV-1; details: 48 hours exposure
LoVo = test: SRB colorimetric assay of cell growth and viability, LoVo; details: 48 hours exposure; for CC50: read-out: LC50 LOVO
LoVo-Dox = test: SRB colorimetric assay of cell growth and viability, LoVo-Dox; details: 48 hours exposure; for CC50: read-out: LC50 LOVO-DOX
How it was run: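 SRB staining (0.4% wt/vol in 1% acetic acid, 10 min, room temperature) of cells fixed with 50% TCA follows a 48-hour exposure to compound. Plating density is 5×10^3 cells/well, and the OD is taken at 490 nm.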

DU-145 = test: SRB colorimetric assay of cell growth and viability, DU-145; details: 48 hours exposure

Row | SMILES | GI50 (IGROV-ET) [nM] | TGI IGROV-ET (IGROV-ET) [Molar] | CC50 (IGROV-ET) [nM] | TGI HT-29 (HT-29) [Molar] | GI50 (HT-29) [nM] | CC50 (HT-29) [nM] | GI50 (PANC-1) [nM] | TGI PANC-1 (PANC-1) [Molar] | CC50 (PANC-1) [nM] | TGI A-549 (A-549) [Molar] | GI50 (A-549) [nM] | CC50 (A-549) [nM] | GI50 (K-562) [nM] | TGI K-562 (K-562) [Molar] | CC50 (K-562) [nM] | GI50 (HeLa) [nM] | TGI HELA (HeLa) [Molar] | CC50 (HeLa) [nM] | GI50 (HeLa-APL) [nM] | TGI HELA-APL (HeLa-APL) [Molar] | further results
1 | C/C=C1\NC(=O)[C@H](Cc2ccccc2)NC(=O)[C@@H](C(C)C)NC(=O)[C@@H]([C@@H](C)CC)NC(=O)[C@H](NC(=O)[C@H](NC(=O)[C@H](CCCN)NC(=O)[C@H]2CCCN2C(=O)[C@H](NC(=O)[C@@H](NC(=O)[C@@H](NC(=O)[C@@H](NC(=O)CCCC(C)C)C(C)C)[C@@H](C)O)C(C)C)C(C)C)[C@@H](C)CC)[C@@H](C)OC(=O)[C@H](C(C)C)NC1=O [Compound 38, [Val^13]-KF] | 1970 | 2.97E−06 | 4490 | 2.12E−06 | 1160 | 3880 | 25.4 | 1.20E−07 | 988 | 9.88E−07 | 307 | 2440 | 1280 | 2.28E−06 | 4050 | 46 | 1.55E−07 | 583 | 1850 | 2.88E−06 | CC50 (HeLa-APL): 4490 nM; GI50 (SK-MEL-28): 805 nM; TGI MEL-28 (SK-MEL-28): 1.68E−06 Molar; CC50 (SK-MEL-28): 3550 nM; GI50 (IGROV-1): 1010 nM; LC50 (concentration causing 50% net cell killing) (IGROV-1): 3530 nM; TGI IGROV (IGROV-1): 1.89E−06 Molar; GI50 (LoVo): 1290 nM; TGI LOVO (LoVo): 2.40E−06 Molar; CC50 (LoVo): 4470 nM; GI50 (LoVo-Dox): 1120 nM; TGI LOVO-DOX (LoVo-Dox): 1.94E−06 Molar; CC50 (LoVo-Dox): 3360 nM; GI50 (DU-145): 1660 nM; LC50 (concentration causing 50% net cell kill) (DU-145): 4220 nM; TGI DU-145 (DU-145): 2.65E−06 Molar
2 | C/C=C1\NC(=O)[C@H](Cc2ccccc2)NC(=O)[C@@H](C(C)C)NC(=O)[C@@H]([C@@H](C)CC)NC(=O)[C@H](NC(=O)[C@H](NC(=O)[C@H](CCCN)NC(=O)[C@H]2CCCN2C(=O)[C@H](NC(=O)[C@@H](NC(=O)[C@@H](NC(=O)[C@H]2CCCN2C(=O)CCCC(C)C)[C@@H](C)O)C(C)C)C(C)C)[C@@H](C)CC)[C@@H](C)OC(=O)[C@H](C(C)C)NC1=O [Compound 37, [D-Pro^13]-KF] | 1210 | 2.24E−06 | 4150 | 6.78E−06 | 391 | 6780 | 15.4 | 3.12E−08 | 62.8 | 3.90E−08 | 17.4 | 813 | 684 | 1.48E−06 | 3200 | 12.9 | 2.83E−08 | 62 | 888 | 2.01E−06 | CC50 (HeLa-APL): 4550 nM; GI50 (SK-MEL-28): 76.6 nM; TGI MEL-28 (SK-MEL-28): 2.76E−07 Molar; CC50 (SK-MEL-28): 1300 nM; GI50 (IGROV-1): 165 nM; LC50 (concentration causing 50% net cell killing) (IGROV-1): 2550 nM; TGI IGROV (IGROV-1): 8.27E−07 Molar; GI50 (LoVo): 114 nM; TGI LOVO (LoVo): 1.02E−06 Molar; CC50 (LoVo): 2970 nM; GI50 (LoVo-Dox): 1780 nM; TGI LOVO-DOX (LoVo-Dox): 4.30E−06 Molar; CC50 (LoVo-Dox): 6780 nM; GI50 (DU-145): 228 nM; LC50 (concentration causing 50% net cell kill) (DU-145): 1960 nM; TGI DU-145 (DU-145): 5.81E−07 Molar
3 | C/C=C1\NC(=O)[C@H](Cc2ccccc2)NC(=O)[C@@H](C(C)C)NC(=O)[C@@H]([C@@H](C)CC)NC(=O)[C@H](NC(=O)[C@H](NC(=O)[C@H](CCCN)NC(=O)[C@H]2CCCN2C(=O)[C@H](NC(=O)[C@@H](NC(=O)[C@H](CC(C)C)NC(=O)CCCC(C)C)C(C)C)C(C)C)[C@@H](C)CC)[C@@H](C)OC(=O)[C@H](C(C)C)NC1=O [Compound 54, [Leu^12, noD-Val^13]-KF] ({Hexanoyl(5-Me)}-LV[dV][dP][Orn][d(aIle)][d(aThr)][d(aIle)][dV]F[Dhb]V; ester 7-C) | 1450 | 2.57E−06 | 4570 | 3.51E−06 | 1880 | 6550 | 863 | 2.01E−06 | 4680 | 2.19E−06 | 1140 | 4230 | 1310 | 2.40E−06 | 4410 | 841 | 1.73E−06 | 3540 | 1080 | 2.04E−06 | CC50 (HeLa-APL): 3880 nM; GI50 (SK-MEL-28): 1240 nM; TGI MEL-28 (SK-MEL-28): 2.20E−06 Molar; CC50 (SK-MEL-28): 3900 nM; GI50 (IGROV-1): 1110 nM; LC50 (concentration causing 50% net cell killing) (IGROV-1): 3920 nM; TGI IGROV (IGROV-1): 2.09E−06 Molar; GI50 (LoVo): 1080 nM; TGI LOVO (LoVo): 2.14E−06 Molar; CC50 (LoVo): 4210 nM; GI50 (LoVo-Dox): 1550 nM; TGI LOVO-DOX (LoVo-Dox): 2.88E−06 Molar; CC50 (LoVo-Dox): 5370 nM; GI50 (DU-145): 1490 nM; LC50 (concentration causing 50% net cell kill) (DU-145): 4610 nM; TGI DU-145 (DU-145): 2.62E−06 Molar
4 | C/C=C1\NC(=O)[C@H](Cc2ccccc2)NC(=O)[C@@H](C(C)C)NC(=O)[C@@H]([C@@H](C)CC)NC(=O)[C@H](NC(=O)[C@H](NC(=O)[C@H](CCCN)NC(=O)[C@H]2CCCN2C(=O)[C@H](NC(=O)[C@@H](NC(=O)[C@@H](NC(=O)[C@@H](CCC(=O)O)NC(=O)CCCC(C)C)[C@@H](C)O)C(C)C)C(C)C)[C@@H](C)CC)[C@@H](C)OC(=O)[C@H](C(C)C)NC1=O [Compound 39, [D-Glu^13]-KF] | 1290 | 2.29E−06 | 4090 | 2.16E−06 | 1200 | 3870 | 4100 | 6.63E−06 | 6630 | 6.63E−06 | 4410 | 6630 | 1270 | 2.47E−06 | 4820 | 4180 | 6.63E−06 | 6630 | 2750 | 6.63E−06 | CC50 (HeLa-APL): 6630 nM; GI50 (SK-MEL-28): 3390 nM; TGI MEL-28 (SK-MEL-28): 6.63E−06 Molar; CC50 (SK-MEL-28): 6630 nM; GI50 (IGROV-1): 1330 nM; LC50 (concentration causing 50% net cell killing) (IGROV-1): 4110 nM; TGI IGROV (IGROV-1): 2.33E−06 Molar; GI50 (LoVo): 889 nM; TGI LOVO (LoVo): 1.72E−06 Molar; CC50 (LoVo): 3340 nM; GI50 (LoVo-Dox): 889 nM; TGI LOVO-DOX (LoVo-Dox): 1.70E−06 Molar; CC50 (LoVo-Dox): 3260 nM; GI50 (DU-145): 3480 nM; LC50 (concentration causing 50% net cell kill) (DU-145): 6630 nM; TGI DU-145 (DU-145): 6.63E−06 Molar
